Here are results for 27 molecules from PubChem BioAssay (NCI).

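Tested at 5 concentrations; 48 h exposure; 96-well plates; endpoints linearly interpolated, else capped at highest concentration. GI50: concentration for 50% inhibition of growth. At the TGI there is no net growth.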 Some results are limits rather than exact numbers.

What all share (assay): NCI-60 cell line screen, 48 h
Test [1] has as its system A498 renal.
In test [2] the test system is IGROV1 ovarian.
The subject of test [3] is HOP-62 NSCLC.
Test [4] relates to SF-539 CNS.
Test [5] has as its system OVCAR-5 ovarian.
Test [6] deals with EKVX NSCLC.
In test [7] the test system is UACC-62 melanoma.

With `CC1(Cl)C(=O)NC(=O)N(C2CC(N=[N+]=[N-])C(CO)O2)C1N=[N+]=[N-]` (stereo not drawn), the TGI in test [1], in test [2], in test [3], in test [4], in test [5] and in test [6] was more than 100 µM throughout. In test [7], this molecule had a TGI of more than 100 µM.
Regarding `O=C1C=CC(=Nc2ccc3c(c2)C(Br)c2ccccc2-3)O1` (stereo not drawn), the TGI in test [2], in test [3], in test [4], in test [6] and in test [7] was more than 100 µM in each case.
Turning to `CC(=O)Nc1ccccc1Sc1ccccc1`, the TGI in test [1], in test [2], in test [3], in test [4], in test [5] and in test [6] was more than 100 µM throughout. In test [7], this molecule displayed a TGI of more than 100 µM.
In the case of `Cc1cc2c(cc1C)[n+](=O)c(C(=O)CC(=O)C(=O)Nc1c(C(C)C)cccc1C(C)C)c(C)n2[O-]`, the TGI in test [1], in test [2], in test [3], in test [4], in test [5] and in test [6] was more than 100 µM in each case. The TGI in test [7] is more than 100 µM.
On to `N#CC(C(=N/O)/C(=N/O)C(C#N)c1ccc(Cl)cc1)c1ccc(Cl)cc1` (stereo not drawn), for which the TGI in test [1], in test [2], in test [3], in test [4], in test [5] and in test [6] was more than 100 µM throughout. The molecule also came in with a TGI in test [7] of more than 100 µM.
On to `N#C/C(=C/c1ccsc1)C(=O)c1ccccc1`, for which the TGI in test [3], in test [4], in test [5], in test [6] and in test [7] was more than 100 µM each time.
For `O=C1OCc2c1cc1ccc(O)c(OC3OC(CO)C(O)C(O)C3O)c1c2-c1ccc2c(c1)OCO2` (stereo not drawn), the TGI in test [1], in test [2], in test [3], in test [4], in test [5] and in test [6] was more than 100 µM throughout. In addition, the TGI in test [7] was more than 100 µM.
With `COc1cc(C2c3cc4c(cc3C(NCC(O)CO)C3COC(=O)[C@H]23)OCO4)cc(OC)c1OC` (stereo partly drawn), the TGI in test [2] is more than 100 µM; in test [3], 0.676 µM; in test [4], 0.344 µM; in test [5], more than 100 µM; in test [6], more than 100 µM; in test [7] it was more than 100 µM.
With `COc1ccccc1C1C(C(=O)Nc2ccccc2)=C(C)NC(C)=C1C(=O)Nc1ccccc1`, the TGI in test [1] was 82.5 µM; in test [2], more than 100 µM; in test [3], more than 100 µM; in test [4], more than 100 µM; in test [5], more than 100 µM; in test [6], more than 100 µM. In test [7], this molecule returned a TGI of more than 100 µM.
Turning to `COC(=O)C1=C(C(=O)OC)C2C=CC1C1C(Cl)=C(Cl)C21` (stereo not drawn), the TGI in test [2], in test [3], in test [4], in test [5], in test [6] and in test [7] was more than 100 µM each time.
On to `COc1ccc(CNc2cc(OC)c(OC)c(OC)c2)cc1`, for which the TGI was more than 83.4 µM in test [1]; more than 100 µM in test [2]; more than 71.5 µM in test [3]; 35.1 µM in test [4]; more than 83.7 µM in test [5]; 98.9 µM in test [6]. The same molecule gave a TGI in test [7] of more than 100 µM.
`CC1=C(C(=O)Nc2ccc([N+](=O)[O-])cc2)C(c2ccc(N(C)C)cc2)C(C(=O)Nc2ccc([N+](=O)[O-])cc2)=C(C)N1`: the TGI in test [1] came to 81.8 µM; in test [2], 61.9 µM; in test [3] it was 27.5 µM; in test [4] it was 50.5 µM; in test [5], 67 µM; in test [6] it was 90.4 µM.
`COc1ccc2cc1Oc1ccc(cc1)CC1c3cc(c(OC)cc3CCN1C)Oc1c3c(cc4c1C(C2)N(C)CC4)OCO3` (stereo not drawn): the TGI in test [2] is 28.8 µM; in test [3], 29.8 µM; in test [4] it was 6.03 µM; in test [5], 32.4 µM; in test [6], 29.8 µM; in test [7] it was 30.1 µM.
For `COc1ccc(OC)c(NC(=O)C(=O)C(C(C)=O)c2nc3ccc(Cl)cc3[nH]c2=O)c1` (stereo not drawn), the TGI in test [1], in test [2], in test [3], in test [4], in test [5] and in test [6] was more than 50 µM each time. For the same molecule, the TGI in test [7] was more than 50 µM.
For `OCc1ccc2[n+](c1)CCC1c3ccccc3NC21` (stereo not drawn), the TGI in test [2], in test [3], in test [4], in test [6] and in test [7] was more than 300 µM each time.
As to `Clc1ccc(C2N3CCCCC3[C@@H]3c4[nH]c5ccccc5c4CCN23)cc1` (stereo partly drawn), the TGI in test [1], in test [2], in test [3], in test [4], in test [5] and in test [6] was more than 100 µM throughout. The TGI in test [7] was more than 100 µM.
Turning to `CCCCN(CCCC)C(=O)C(=O)C(C#N)c1ccc(C)cc1` (stereo not drawn), the TGI in test [1], in test [2], in test [3], in test [4], in test [5] and in test [6] was more than 100 µM in each case. In addition, in test [7], the TGI was more than 100 µM.
Consider `N#CC1(Cc2ccc(N)cc2)c2ccccc2C=CN1C(=O)c1ccccc1` (stereo not drawn), for which the TGI in test [1], in test [2], in test [3], in test [4], in test [5] and in test [6] was more than 100 µM in each case. Besides, in test [7], the TGI was more than 100 µM.
On to `O=C(N/N=C/c1ccccc1O)c1cccc([N+](=O)[O-])c1`, for which the TGI in test [1] is more than 100 µM; in test [2], 79.6 µM; in test [4], more than 82.1 µM; in test [5], more than 100 µM; in test [6], 82.8 µM; in test [7], more than 70.8 µM.
With `CC(C)CC(=O)[O-].CC(C)CC(=O)[O-].N.N.N.N.[Co+3].[O-][Cl+3]([O-])([O-])[O-]`, the GI50 in test [1], in test [2], in test [3], in test [4], in test [5] and in test [6] was more than 100 µM in each case. Moreover, the GI50 in test [7] is more than 100 µM. Further, the TGI in test [1], in test [2], in test [3], in test [4], in test [5] and in test [6] was more than 100 µM each time. The molecule also returned a TGI in test [7] of more than 100 µM.
Regarding `Cc1nc2c(nc1Cl)nc(Oc1ccc(Cl)cc1)c1ccccc12`, the TGI in test [2] was more than 100 µM; in test [3], 84.1 µM; in test [4], more than 100 µM; in test [5] it was more than 100 µM; in test [6], more than 100 µM; in test [7] it was more than 100 µM.
With `COc1ccc2[nH]c3c(C)c4c(c(C)c3c2c1)CN(C)CC4`, the TGI is 32.2 µM in test [1]; 35.9 µM in test [2]; 32.4 µM in test [3]; 29.8 µM in test [4]; 54.2 µM in test [5]; 34.8 µM in test [7].
`COC(=O)C[C@H]1CCC2(OCCO2)[C@]1(C)C(=O)OC`: the TGI in test [1], in test [2], in test [3], in test [4], in test [5] and in test [6] was more than 100 µM in each case. Further, the TGI in test [7] is more than 100 µM.
For `CC12CC[C@@H](C(C)(C)O)C1[C@@H](O)CC1(C)C2CCC2[C@@]3(C)CC[C@H](O)C(C)(C)C3C(O)C[C@]21C` (stereo partly drawn), the TGI was found to be 32.3 µM in test [1]; 39.5 µM in test [2]; 35.3 µM in test [4]; 31.2 µM in test [5]; 29 µM in test [6]; 34.7 µM in test [7].
In the case of `CCCCNC1=C(C(=O)OCC)C(=O)CO1`, the TGI in test [2], in test [3], in test [4], in test [5], in test [6] and in test [7] was more than 100 µM each time.
As for `COc1ccc2ccc3c(c2c1)CN1CCc2cc(OC)c(OC)cc2C1C3` (stereo not drawn), the TGI in test [2], in test [3], in test [4], in test [5], in test [6] and in test [7] was more than 100 µM in each case.
As for `COC(=O)CC(=O)C[P+](c1ccccc1)(c1ccccc1)c1ccccc1`, the TGI in test [2], in test [3], in test [4], in test [6] and in test [7] was more than 218 µM throughout.
